These results are taken from PMC10831936 (iScience, 2024).

SMILES strings stand for the structures. Entries after “also recorded” stand apart in the source; their conditions may differ. Read-outs that look alike come from different tables or passages of the source.

In one experiment the test system is NCI-H1975 cells. On the set-up: method as in Dong et al., 2019. Conditions: growth of NCI-H1975 cells; ref Dong et al., 2019; read-out: IC50_Literature, EGFR; cited from earlier work.
The subject of a further experiment is HTR2A NFAT. Briefly: ERBBprofiler barcoded NFAT pathway sensor, HTR2A co-transfected. To be noted: Rattus norvegicus, PC-12, 6 h, read-out: HTR2A NFAT IC50.
The subject of another experiment is ERBB2/3 EGR1p. Briefly: ERBBprofiler barcoded EGR1p pathway sensor, ERBB2/3 co-transfected. To be noted: Rattus norvegicus, PC-12, 6 h, read-out: ERBB2/3 EGR1p IC50.
Experiment [1] has as its target ERBB4 (Homo sapiens, UniProt Q15303). The experiment can be described thus: ERBBprofiler barcoded split TEV assay, ERBB4. To be noted: ERBB4 UAS (split TEV) IC50, PC12 cells; constant EGF 30 ng/mL, EGFld 10 ng/mL, serotonin 1 μM; 6 h; barcode readout; relative IC50.
The subject of a further experiment is calcium. The experiment can be described thus: Fluo-4 AM calcium assay in PC12 cells. Conditions: stimulation mix. It is filed as cell-based, Rattus norvegicus.
The next experiment concerns ERBB4 NFAT. The experiment can be described thus: ERBBprofiler barcoded NFAT pathway sensor, ERBB4 co-transfected. Conditions: PC12 cells; constant EGF 30 ng/mL, EGFld 10 ng/mL, serotonin 1 μM; 6 h; barcode readout; relative IC50. It is filed as cell-based, Rattus norvegicus.
In the next experiment the test system is HTR2A EGR1p. The experiment can be described thus: ERBBprofiler barcoded EGR1p pathway sensor, HTR2A co-transfected. To be noted: Rattus norvegicus, PC-12, 6 h, read-out: HTR2A EGR1p IC50.
For experiment [2], the system named is Calu-3 and NCI-H1781 cells. Also noted: method as in Dong et al., 2019. Conditions: growth of Calu-3 and NCI-H1781 cells; ref Dong et al., 2019; read-out: IC50_Literature, ERBB2; cited from earlier work.
Experiment [3] deals with ERBB receptors, HTR2A, and downstream signaling pathways. Briefly: ERBBprofiler multiplexed barcoded assay, overall statements across all receptor batches and sensors. Conditions: for CRE sensor response at high compound concentration (barcoded): 10 μM compound, PC12 cells, stimulation mix.
The test system of the next experiment is CRE sensor. The experiment can be described thus: CRE sensor only luciferase assay in PC12 cells. It is filed as cell-based, Rattus norvegicus.
The subject of a further experiment is ERBB4 EGR1p. The experiment can be described thus: ERBBprofiler barcoded EGR1p pathway sensor, ERBB4 co-transfected. To be noted: Rattus norvegicus, PC-12, 6 h, read-out: ERBB4 EGR1p IC50.
The target of another experiment is HTR2A (Homo sapiens, UniProt P28223). The experiment can be described thus: ERBBprofiler barcoded split TEV assay, HTR2A.
The target in a further experiment is ERBB2/3 (Homo sapiens, UniProt P04626+P21860). Briefly: ERBBprofiler barcoded split TEV assay, ERBB2/3.
In experiment [4] the test system is ERBB4. On the set-up: method as in Nam et al., 2011. Conditions: tyrosine kinase assay kit (Panvera); ref Nam et al., 2011; read-out: IC50_Literature, ERBB4; cited from earlier work.
The next experiment concerns EGFR EGR1p. The experiment can be described thus: ERBBprofiler barcoded EGR1p pathway sensor, EGFR co-transfected. Conditions: Rattus norvegicus, PC-12, 6 h, read-out: EGFR EGR1p IC50.
In a further experiment the test system is EGFR NFAT. Briefly: ERBBprofiler barcoded NFAT pathway sensor, EGFR co-transfected. In kind it is cell-based, Rattus norvegicus.
The subject of a further experiment is cAMP. The experiment can be described thus: GloSensor cAMP assay in PC12 cells. It is filed as cell-based, Rattus norvegicus.
The test system of experiment [5] is ERBB4. On the set-up: method as in Hasako et al., 2018. To be noted: biochemical kinase activity assay by Carna Biosciences; ref Hasako et al., 2018; read-out: IC50_Literature, ERBB4; cited from earlier work.
Another experiment relates to ERBB2/3 NFAT. The experiment can be described thus: ERBBprofiler barcoded NFAT pathway sensor, ERBB2/3 co-transfected. In kind it is cell-based, Rattus norvegicus. To be noted: PC12 cells; constant EGF 30 ng/mL, EGFld 10 ng/mL, serotonin 1 μM; 6 h; barcode readout; relative IC50.
Experiment [6] has as its system EGFR. On the set-up: method as in Hasako et al., 2018. Conditions: phospho-WB in NIH/3T3 cell lines; ref Hasako et al., 2018; read-out: IC50_Literature, EGFR; cited from earlier work.
Experiment [7] addresses EGFR (Homo sapiens, UniProt P00533). Briefly: ERBBprofiler barcoded split TEV assay, EGFR.
The subject of the next experiment is ERBB2. Also noted: method as in Hasako et al., 2018. Conditions: biochemical kinase activity assay by Carna Biosciences; ref Hasako et al., 2018; read-out: IC50_Literature, ERBB2; cited from earlier work.

Sequence of ERBB2/3 (P04626 23-1255): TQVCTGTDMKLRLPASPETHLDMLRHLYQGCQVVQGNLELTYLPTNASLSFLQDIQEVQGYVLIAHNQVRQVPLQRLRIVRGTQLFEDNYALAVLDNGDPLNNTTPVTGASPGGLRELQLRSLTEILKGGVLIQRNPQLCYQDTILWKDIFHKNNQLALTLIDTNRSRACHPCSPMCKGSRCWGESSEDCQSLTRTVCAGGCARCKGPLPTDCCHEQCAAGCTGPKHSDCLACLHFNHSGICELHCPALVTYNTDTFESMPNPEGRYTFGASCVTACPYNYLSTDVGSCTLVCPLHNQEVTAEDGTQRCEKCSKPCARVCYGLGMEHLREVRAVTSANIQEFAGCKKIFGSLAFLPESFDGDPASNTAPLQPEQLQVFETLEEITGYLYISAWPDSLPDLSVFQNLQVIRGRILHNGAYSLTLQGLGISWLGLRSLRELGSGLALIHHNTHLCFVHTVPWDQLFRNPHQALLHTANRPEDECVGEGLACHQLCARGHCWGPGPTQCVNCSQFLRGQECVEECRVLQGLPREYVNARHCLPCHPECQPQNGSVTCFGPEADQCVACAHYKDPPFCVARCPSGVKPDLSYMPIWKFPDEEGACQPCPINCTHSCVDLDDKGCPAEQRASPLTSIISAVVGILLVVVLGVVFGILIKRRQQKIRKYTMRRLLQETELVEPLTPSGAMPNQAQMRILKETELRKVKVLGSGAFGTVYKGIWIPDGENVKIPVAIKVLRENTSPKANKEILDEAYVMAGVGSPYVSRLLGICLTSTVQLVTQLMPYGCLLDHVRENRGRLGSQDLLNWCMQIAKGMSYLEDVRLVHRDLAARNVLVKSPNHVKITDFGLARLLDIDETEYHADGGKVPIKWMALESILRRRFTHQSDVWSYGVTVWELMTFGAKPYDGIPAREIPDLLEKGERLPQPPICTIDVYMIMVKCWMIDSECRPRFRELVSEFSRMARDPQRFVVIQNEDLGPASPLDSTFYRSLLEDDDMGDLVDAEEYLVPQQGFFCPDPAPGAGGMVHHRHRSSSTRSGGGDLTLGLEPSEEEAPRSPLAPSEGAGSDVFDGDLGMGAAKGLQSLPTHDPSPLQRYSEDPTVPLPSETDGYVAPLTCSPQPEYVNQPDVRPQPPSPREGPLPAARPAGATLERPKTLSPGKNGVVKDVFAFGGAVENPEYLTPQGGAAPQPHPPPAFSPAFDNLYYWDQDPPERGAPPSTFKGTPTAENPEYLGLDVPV
Sequence of ERBB2/3 (P21860 20-1342): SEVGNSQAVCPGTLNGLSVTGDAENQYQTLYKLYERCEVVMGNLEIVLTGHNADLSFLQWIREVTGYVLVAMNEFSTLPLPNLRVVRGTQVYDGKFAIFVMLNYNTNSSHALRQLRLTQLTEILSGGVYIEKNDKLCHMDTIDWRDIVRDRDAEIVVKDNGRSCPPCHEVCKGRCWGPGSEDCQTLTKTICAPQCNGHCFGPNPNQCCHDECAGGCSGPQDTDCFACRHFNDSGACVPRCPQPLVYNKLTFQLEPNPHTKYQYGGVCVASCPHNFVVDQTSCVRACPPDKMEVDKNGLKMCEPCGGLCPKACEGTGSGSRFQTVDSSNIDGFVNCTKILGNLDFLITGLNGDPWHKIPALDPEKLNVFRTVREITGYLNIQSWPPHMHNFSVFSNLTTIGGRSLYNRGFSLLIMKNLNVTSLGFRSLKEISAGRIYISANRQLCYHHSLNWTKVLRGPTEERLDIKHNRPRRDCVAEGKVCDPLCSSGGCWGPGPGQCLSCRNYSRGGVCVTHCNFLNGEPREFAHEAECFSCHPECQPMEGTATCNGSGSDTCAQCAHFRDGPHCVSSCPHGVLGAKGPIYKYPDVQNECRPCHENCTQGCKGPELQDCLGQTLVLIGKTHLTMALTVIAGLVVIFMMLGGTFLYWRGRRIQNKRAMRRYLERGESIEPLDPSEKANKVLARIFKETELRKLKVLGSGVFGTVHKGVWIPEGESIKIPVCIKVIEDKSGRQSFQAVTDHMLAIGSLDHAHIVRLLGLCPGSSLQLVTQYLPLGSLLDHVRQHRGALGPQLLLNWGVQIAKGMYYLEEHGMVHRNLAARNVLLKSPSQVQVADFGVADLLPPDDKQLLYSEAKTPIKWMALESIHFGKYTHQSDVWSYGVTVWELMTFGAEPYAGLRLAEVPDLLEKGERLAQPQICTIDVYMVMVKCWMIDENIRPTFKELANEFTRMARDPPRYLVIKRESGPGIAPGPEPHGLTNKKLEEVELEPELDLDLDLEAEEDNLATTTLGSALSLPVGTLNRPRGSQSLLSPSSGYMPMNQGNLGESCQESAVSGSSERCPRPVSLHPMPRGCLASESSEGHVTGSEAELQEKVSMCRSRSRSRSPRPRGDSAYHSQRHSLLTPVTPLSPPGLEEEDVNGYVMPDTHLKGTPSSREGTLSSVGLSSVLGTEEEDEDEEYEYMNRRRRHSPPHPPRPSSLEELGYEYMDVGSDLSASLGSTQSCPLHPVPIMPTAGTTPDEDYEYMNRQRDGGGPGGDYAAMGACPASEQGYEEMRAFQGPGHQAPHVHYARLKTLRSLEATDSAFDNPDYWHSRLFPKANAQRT
Sequence of ERBB4 (Homo sapiens, UniProt Q15303) (Q15303 26-1308): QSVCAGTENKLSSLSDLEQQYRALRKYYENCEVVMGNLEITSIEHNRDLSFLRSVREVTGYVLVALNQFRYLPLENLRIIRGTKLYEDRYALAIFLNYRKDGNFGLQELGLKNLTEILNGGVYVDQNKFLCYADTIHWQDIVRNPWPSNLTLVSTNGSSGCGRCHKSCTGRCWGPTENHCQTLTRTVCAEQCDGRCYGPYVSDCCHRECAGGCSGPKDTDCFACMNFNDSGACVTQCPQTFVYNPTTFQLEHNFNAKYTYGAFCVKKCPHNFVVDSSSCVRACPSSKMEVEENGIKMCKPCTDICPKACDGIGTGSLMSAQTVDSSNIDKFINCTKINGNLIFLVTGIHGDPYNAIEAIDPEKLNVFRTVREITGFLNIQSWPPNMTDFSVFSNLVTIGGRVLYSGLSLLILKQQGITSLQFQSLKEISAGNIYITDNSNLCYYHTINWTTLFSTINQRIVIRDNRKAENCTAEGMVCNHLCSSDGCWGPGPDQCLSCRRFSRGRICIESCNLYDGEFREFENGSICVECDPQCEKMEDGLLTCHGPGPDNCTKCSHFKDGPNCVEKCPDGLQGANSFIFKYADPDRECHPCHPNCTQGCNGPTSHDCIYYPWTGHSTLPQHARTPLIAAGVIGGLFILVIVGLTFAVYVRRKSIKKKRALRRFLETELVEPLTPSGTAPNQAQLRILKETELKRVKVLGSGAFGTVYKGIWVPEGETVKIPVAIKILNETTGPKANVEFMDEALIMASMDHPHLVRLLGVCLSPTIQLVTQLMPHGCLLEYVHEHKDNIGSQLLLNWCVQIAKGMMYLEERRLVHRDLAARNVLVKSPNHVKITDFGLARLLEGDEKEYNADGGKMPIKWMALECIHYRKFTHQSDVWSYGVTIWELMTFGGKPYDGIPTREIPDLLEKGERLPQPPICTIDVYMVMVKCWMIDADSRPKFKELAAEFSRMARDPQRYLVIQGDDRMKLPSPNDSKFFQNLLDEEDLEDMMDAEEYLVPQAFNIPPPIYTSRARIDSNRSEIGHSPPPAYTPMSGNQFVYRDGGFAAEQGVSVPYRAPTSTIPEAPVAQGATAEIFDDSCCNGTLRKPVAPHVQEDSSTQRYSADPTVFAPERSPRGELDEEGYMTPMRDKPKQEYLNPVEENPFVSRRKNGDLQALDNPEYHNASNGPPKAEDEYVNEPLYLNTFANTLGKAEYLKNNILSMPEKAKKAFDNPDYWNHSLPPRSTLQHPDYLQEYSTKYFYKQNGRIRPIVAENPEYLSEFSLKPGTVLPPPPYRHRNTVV
Sequence of HTR2A (P28223 whole entry): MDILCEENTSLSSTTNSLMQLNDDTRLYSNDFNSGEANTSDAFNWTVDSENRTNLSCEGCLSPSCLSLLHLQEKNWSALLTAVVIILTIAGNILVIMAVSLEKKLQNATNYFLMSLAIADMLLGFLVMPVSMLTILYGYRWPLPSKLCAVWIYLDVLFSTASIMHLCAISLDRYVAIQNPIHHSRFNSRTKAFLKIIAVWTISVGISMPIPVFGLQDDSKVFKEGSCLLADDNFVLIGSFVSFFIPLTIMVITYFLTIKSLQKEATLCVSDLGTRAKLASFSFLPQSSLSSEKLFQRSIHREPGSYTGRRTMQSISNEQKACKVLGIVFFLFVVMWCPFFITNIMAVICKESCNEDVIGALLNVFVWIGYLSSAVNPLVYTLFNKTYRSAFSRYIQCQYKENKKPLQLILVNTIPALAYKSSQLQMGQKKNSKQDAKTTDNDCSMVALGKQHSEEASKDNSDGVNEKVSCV
Experimental for CRE sensor: 50,000 PC12 cells were seeded per 96-well onto poly-L-lysin (PLL)-coated plates and transfected the following day (day in vitro 1, DIV1) with assay plasmids using Lipofectamine 3000 (Thermo Fisher Scientific). […] For pathway assays, the receptor plasmids (15 ng/well) and pathway reporter plasmids (15 ng/well) pEGR1p-luc2 for monitoring MAPK signaling, pCRE-CMVmin-luc2 for monitoring cAMP/Ca^2+ signaling, or p6xNFAT-CMVmin-luc2 for Ca^2+ signaling were used. Transient transfections were conducted according to the manufacturer’s instructions. On DIV2, cells were starved in medium containing 1% FCS for 16 h. […] In the case of antagonist assays, compounds were added at increasing doses together with the stimulus. Cells were lysed in 1x passive lysis buffer (Promega) and subjected to a firefly luciferase assay using a self-made substrate for firefly luciferase.[100] Luciferase activity was analyzed in a Mithras LB 940 Multimode Microplate Reader (Berthold Technologies). All assays were run in 96-well plates using six replicates per condition.
Experimental for cAMP: The GloSensor cAMP assay was conducted with the same parameters (50,000 PC12 cells per 96-well) as described above for the firefly luciferase assay, with however, three differences. Specifically, (1) 30 ng/well of the pGloSensor-22F plasmid (Promega, E2301) was used for transfection, and (2) on DIV3, cells were equilibrated in assay medium containing a 2% v/v dilution of D-luciferin (Synchem, bc219) for 2 h at 37°C before (3) the treatment of compounds for 15 min and lysis in 1x passive lysis buffer (Promega) and luciferase activity measurement.
Experimental for calcium: On DIV2, cells were pre-equilibrated in 10 μM Fluo-4 a.m. (Thermo Fisher Scientific, F14201) away from light for 1 h at 37°C. Next, cells were incubated in the indicator-free starvation medium to allow de-esterification for 20 min away from light at 37°C. Background fluorescence was then measured using the BMG POLARstar Optima Microplate Reader prior to adding the treatments and continuously measuring the fluorescence for the next 30 min. Fluorescence was measured using the bottom optics.

On to `C=CC(=O)N1CCC(Oc2cc3c(Nc4ccc(Cl)c(Cl)c4F)ncnc3cc2OC)CC1` [Poziotinib, Poziotinib (HM781-36B)], for which the IC50 in the experiment with NCI-H1975 cells was 1.7 to 8.78 nM; in the experiment on HTR2A NFAT, 16 nM; in the experiment with ERBB2/3 EGR1p, 0.79 nM; at ERBB4 [1], 3.11 nM; in the experiment on HTR2A EGR1p, 1.14 nM; in experiment [2], 2.5 to 6.2 nM. Besides, the IC50 in the experiment with ERBB4 EGR1p was 0.87 nM; against HTR2A, 4.56 nM; against ERBB2/3, 2.63 nM; in the experiment with ERBB4 [4], 23.5 nM; in the experiment with EGFR EGR1p, 0.89 nM. For the same molecule, in the experiment on calcium, the “effect on calcium levels (Fluo-4 AM)” value is given as “but not calcium levels”. Further, in the experiment on ERBB4 NFAT, the “ERBB4 NFAT IC50” value was “no effect (EGFR, ERBB2/3, ERBB4) - 0.016 µM (HTR2A)”. Also, the “CRE sensor response at high compound concentration (barcoded)” value in experiment [3] is recorded as “upregulation of the CRE sensor; also recorded: upregulated CRE sensor response”. Besides, the “effect on CRE sensor activity (luciferase), in words” value with CRE sensor (PC12 cells, CRE sensor only, stimulation mix) was “CRE sensor activation at high compound concentrations”. In addition, the EC50 was found to be 1640 nM in the experiment on CRE sensor (Rattus norvegicus, PC-12) and 2910 nM with cAMP (Rattus norvegicus, PC-12, 0.25 h, constant stimulation mix, 15 min, cAMP increase). Moreover, the “EGFR NFAT IC50” value in the experiment with EGFR NFAT (PC12 cells, constant EGF 30 ng/mL, EGFld 10 ng/mL, serotonin 1 μM, 6 h, barcode readout, relative IC50) was “no effect (EGFR, ERBB2/3, ERBB4) - 0.016 µM (HTR2A)”. Besides, the “effect on cAMP levels (GloSensor)” value with cAMP is reported as “increase of cAMP”. Moreover, the “compound concentration resulting in elevated cAMP (GloSensor)” value in the experiment with cAMP (stimulation mix) was at least 3 µM.

In the case of `C=CC(=O)N[C@H]1C=C(C)c2c(-c3cnc4ccccc4c3)c3c(N)ncnc3n2C1` [TAS6417, TAS6417 (Zipalertinib)], the IC50 is 848 nM with HTR2A NFAT; 267 nM in the experiment on ERBB2/3 EGR1p; 4 nM in the experiment on ERBB4 [5]; 91 nM on ERBB4 [1]; 368 nM in the experiment with EGFR [6]; 193 nM in the experiment on HTR2A EGR1p. Besides, the IC50 was 92 nM on EGFR [7]; 55 nM in the experiment on ERBB4 EGR1p; 444 nM against HTR2A; 206 nM against ERBB2/3; 95 nM in the experiment with EGFR EGR1p; 390 nM in the experiment on ERBB2. Moreover, the “ERBB2/3 NFAT IC50” value with ERBB2/3 NFAT was “no effect (EGFR, ERBB2/3, ERBB4) - 0.848 µM (HTR2A, small effect)”. The “ERBB4 NFAT IC50” value with ERBB4 NFAT was “no effect (EGFR, ERBB2/3, ERBB4) - 0.848 µM (HTR2A, small effect)”. The “CRE sensor response at high compound concentration (barcoded)” value in [3] is listed as “upregulated CRE sensor response”. In addition, in experiment [3] (ERBBprofiler, no receptor named in the cell), the “IC50_ERBBpro, cAMP/Ca2+ (CRE sensor)” value is reported as “no effect”. In addition, the “EGFR NFAT IC50” value in the experiment with EGFR NFAT was “no effect (EGFR, ERBB2/3, ERBB4) - 0.848 µM (HTR2A, small effect)”.

What is called EC50 is the midpoint of the concentration-response curve.
